Results reported in patent publication US20130023550A1, “PHARMACEUTICAL COMPOSITIONS AND METHODS OF MAKING SAME” (GLAXO WELLCOME MANUFACTURING PTE, LTD, priority 2010, published 2013).
In brackets after ≈: the same amount, converted by molar mass. Read-outs that look alike come from different tables or passages of the source. One block for each molecule: values may come before it.

Legend:
Format in all cases: physicochemical
[1] = Binding constant Kb by fluorescence titration
Description: The binding constant between a drug substance and complexing agent can be determined using spectroscopic techniques as outlined by Connors and references therein (Kenneth A. Connors: “Binding Constants”, Wiley-Interscience; 1. edition (April 1987)).
The simplified equilibrium for complexation between pazopanib (034 in Equation 1 shown below) drug substance and13-cyclodextrin sulfobutylether (e.g., Captisol® from Cydex Pharmaceuticals, Inc., Lenexa, Kans.) has been shown as Equation 1, where Kd is the dissociation constant and Kb is the binding constant, 034(s) is solid precipitate for pazopanib, 034(aq) is the aqueous concentration of unbound pazopanib (free state without complexation), Captisol(aq) is the difference between the initial Captisol concentration and the concentration of Captisol in the complexed state with drug substance and pazopanib. […] is the concentration of the complex between pazopanib and 034·Captisol (complexed state).
A titration experiment is performed using pazopanib (approximately 0.05 mg/ml, 10^-4M) solution by varying the concentration of β-cyclodextrin sulfobutylether solution and measuring the fluorescence intensity (excitation at 342 nm, emission at 375 nm) of the resulting solutions. Initial Captisol concentration are chosen to describe the entire titration curve appropriately and to prevent nucleation and precipitation of pazopanib in the solution. […]
The measured Fluorescence intensity is directly related to the concentration of the complexed state 034·Captisol(aq) since uncomplexed pazopanib 034(aq) and Captisol Captisol(aq) have negligible fluorescence yield. The measured fluorescence intensities are fitted using a non-linear simplex fitting routine to determine the value of the binding constant Kb. The Fluorescence intensities are plotted as a function of β-cyclodextrin sulfobutylether concentration according to Benesi and Hildebrandt to determine the binding stoichiometry. […]
Varian Cary Eclipse Fluorescence spectrometer (SN: EL05043801) with a lcm cuvette and orthogonal detection geometry or equivalent. […]

[2] = Calculation of cyclodextrin utility number UCD; details: for K: conservative value used for UCD calculations
Description: The cyclodextrin utility number, UCD, is a dimensionless number used to assess the feasibility of using cyclodextrin in dosage forms. UCD is a lumped parameter consisting of the dose of the drug, the workable amount of CD, the binding constant, and the drug solubility in the absence of CDs. UCD can be used to predict the solubility of ionizable drugs showing a synergistic increase in solubility due to ionization and complexation. See, Rao, V. M., Stella, V. J., J Pharm Sci, 92, 5 927, May 2003. UCD is calculated using the following equation:
UCD=(KSo/1+KSo)(MCD/MD)(MWD/MWCD)
where, mD is dose of drug; mCD is dose of cyclodextrin; MWD is molecular weight drug; MWCD is molecular weight cyclodextrin; and Ko is binding constant.
UCD=(KSo/1+KSo)(mCD/mD)(MWD/MWCD)
Binding constant, K, as described in Example 4 above.
Solubility, So, as described in Example 5 above. from Rao, V. M., Stella, V. J., J Pharm Sci, 92, 5 927, May 2003.

[3] = Solubility of pazopanib as a function of pH in phosphate buffer; details: for solubility at 5 days: phosphate buffer, 25 °C, thermodynamic from solid
Procedure: • 1) Prep 25 mM phosphate buffer (using monobasic Sodium Phosphate, monohydrate), adjust the buffer solution to different target pH using 1N NaOH/HCl. • 2) Add excessive pazopanib free base to the above solutions (˜20 mg free base per 10 mL buffer solution), vortex the solutions, and mix well. […] Equilibrate the solutions for 5 days with agitation. • 4) After 5 days, measure the pH of the solubility solution immediately, and record the pH, and filter the solution into a test tube using a 0.22um PVDF filter. • 5) Dilute the solution by 1:1 (v/v) with 50:50:0.1 water:acetonitrile:TFA (v/v/v) diluent, and mix well. • 6) The solubility of the solutions is analyzed by HPLC at the detection wavelength of 268 nm.
Mobile Phase A: 100:0.1 (v/v) Water:TFA Mobile Phase B: 100:0.1 (v/v) Acetonitrile:TFA Column: Phenomenex Develosil RPAqueous-3, C-30, 3 um, 150 mm×4.6 mm Column temperature: 35° C. Flow rate: Isocratic at 1.0 mL/min, A/B=60/40 Detector wavelength: 268 nm Injection volume: 10 μ L Total run time: 4 minutes

[4] = Osmolality contribution of Captisol

binding constant, Kb ([1]; pH of 4, temperature of 40° C.): 9763 mol⁻¹
binding constant, Kb ([1]; pH of 5, temperature of 25° C.): 9130 mol⁻¹
binding constant of pazopanib, K ([1]; with modified cyclodextrin such as Captisol): approximately 10,000
(KSo)/(1 + KSo) ([2]; pH 3.5): 0.314
K ([2]; pH 3.5): 10000 L/mol
(KSo)/(1 + KSo) ([2]; pH 4.0): 0.023
K ([2]; pH 4.0): 10000 L/mol
(KSo)/(1 + KSo) ([2]; pH 4.25): 0.012
K ([2]; pH 4.25): 10000 L/mol
(KSo)/(1 + KSo) ([2]; pH 4.5): 0.0006
K ([2]; pH 4.5): 10000 L/mol
(KSo)/(1 + KSo) ([2]; pH 5.0): 0.0001
K ([2]; pH 5.0): 10000 L/mol
So ([3]; pH 3.5): 4.57e-05 mol/L
solubility in phosphate buffer ([3]; pH 3.5, 25° C.): ~20 µg/mL (≈ 45.7 µM)
So ([3]; pH 4.0): 2.38e-06 mol/L
solubility in phosphate buffer ([3]; pH 4.0, 25° C.): ~1.043 µg/mL (≈ 2.38 µM)
solubility in phosphate buffer (molar value) ([3]; pH 4.0, 25° C.): ~2.38×10^−6
solubility in phosphate buffer ([3]; pH 4.25, 25° C.): ~0.534 µg/mL (≈ 1.22 µM)
solubility, So ([3]; pH 4.25, 25° C.): ~1.22 µM (≈ 0.534 µg/mL)
solubility in phosphate buffer ([3]; pH 4.5, 25° C.): ~0.025 µg/mL (≈ 0.0571 µM)
solubility, So ([3]; pH 4.5, 25° C.): ~0.0571 µM (≈ 0.025 µg/mL)
solubility, So ([3]; pH 5.0, 25° C.): 0.0137 µM (≈ 0.00599 µg/mL)
solubility at 5 days ([3]; pH 3.5, aqueous buffer, pH 3.5, 25° C., read-out: solubility in phosphate buffer): 20 µg/mL
solubility at 5 days ([3]; pH 3.5, aqueous buffer, pH 3.5, 25° C., read-out: solubility in phosphate buffer (molar value)): 45.7 µM
solubility at 5 days ([3]; pH 4, aqueous buffer, pH 4.0, 25° C., read-out: solubility in phosphate buffer): 1.04 µg/mL
solubility at 5 days ([3]; pH 4, aqueous buffer, pH 4.0, 25° C., read-out: solubility in phosphate buffer (molar value)): 2.38 µM
solubility at 5 days ([3]; pH 4.25, aqueous buffer, pH 4.25, 25° C., read-out: solubility in phosphate buffer): 0.534 µg/mL
solubility at 5 days ([3]; pH 4.25, aqueous buffer, pH 4.25, 25° C., read-out: solubility, So): 1.22 µM
solubility at 5 days ([3]; pH 4.5, aqueous buffer, pH 4.5, 25° C., read-out: solubility in phosphate buffer): 0.025 µg/mL
solubility at 5 days ([3]; pH 4.5, aqueous buffer, pH 4.5, 25° C., read-out: solubility, So): 0.0571 µM
Molecule: Cc1ccc(Nc2nccc(N(C)c3ccc4c(C)n(C)nc4c3)n2)cc1S(N)(=O)=O [pazopanib]

Osmolality (mOsm) ([4]; Captisol 2 % (w/v)): 20 mOsm
Osmolality (mOsm) ([4]; Captisol 3 % (w/v)): 50 mOsm
Osmolality (mOsm) ([4]; Captisol 4 % (w/v)): 80 mOsm
Osmolality (mOsm) ([4]; Captisol 5 % (w/v)): 110 mOsm
Osmolality (mOsm) ([4]; Captisol 6 % (w/v)): 140 mOsm
Osmolality (mOsm) ([4]; Captisol 7 % (w/v)): 170 mOsm
Osmolality (mOsm) ([4]; Captisol 8 % (w/v)): 201 mOsm
Osmolality (mOsm) ([4]; Captisol 9 % (w/v)): 231 mOsm
Osmolality (mOsm) ([4]; Captisol 10 % (w/v)): 261 mOsm
Osmolality (mOsm) ([4]; Captisol 11 % (w/v)): 291 mOsm
Osmolality (mOsm) ([4]; Captisol 12 % (w/v)): 321 mOsm
Osmolality (mOsm) ([4]; Captisol 13 % (w/v)): 351 mOsm
Molecule: β-cyclodextrin sulfobutylether [Captisol]
